A short description of data set [1]: Toxicity study, i.p. injection. It is filed as in vivo, Sabra mice. The settings on record: mouse, in vivo, ip, single, Sabra mice. As for the experimental part: (§1) The toxicity of compound B was tested by injecting 75 mg/kg, 150 mg/kg, 300 mg/kg, 500 mg/kg, 700 mg/kg and 1000 mg/kg i.p. to groups of eight Sabra mice. In addition, a repetitive i.p. injection of 75 mg/kg/day over a period of two weeks was conducted on eight mice. The mice were monitored for mortality and for chances in their weight compared to a saline injected control group.
(§2) The toxicity of compound B was tested by injecting 75 mg/kg, 150 mg/kg, 300 mg/kg, 500 mg/kg, 700 mg/kg and 1000 mg/kg i.p. to groups of eight Sabra mice.

Data set [2] concerns Sabra mice. Briefly: Toxicity study, i.p. injection. It is filed as in vivo. The protocol: as §1, §2
Data set [3] is described as follows: Scavenging of sodium hypochlorite followed by 31P NMR. The settings on record: 5 mM in water, 6 mM NaOCl, immediately after exposure. As for the experimental part: (§3) ROS reaction with AMTP were recorded by ^31 P NMR spectra. ^31 P spectra were referenced to 1% H3 PO4 in D2 O and used as an external standard.
Compound B (5 mM in water) was introduced into 6 mM sodium hypochlorite.

Data set [4] is described as follows: Reaction with hydrogen peroxide followed by 31P NMR. The protocol: as §3
Two products of oxidation were observed by ^31 P NMR (FIG. 4). One product at 9.106 ppm and the other at -3.556 ppm. The second product indicated another fragmentation in the molecule.
Different reaction rates were recorded by NMR kinetics between hydrogen peroxide and compound B either in a more hydrophilic environment and in a more hydrophobic one (different mixtures of 1,4-dioxane and water) with dielectric constants of 72.63 and 9.58 respectively.

The nature of data set [5]: Superoxide radical assay (xanthine/xanthine oxidase, cyt C reduction). As for the experimental part: Superoxide radicals were produced from reactions of xanthine/xanthine oxidase [Mccord, J. M. and Fridovich I. (1969) J. Biol. Chem. 244:6049-6055]. The enzyme unit was adjusted to produce a linear flux of superoxide radicals which gave a slope of 0.12 OD/min at 550 nm. by reduction of cyt-C.
Superoxide radicals were produced by the xanthine/xanthine oxidase system, and the prevention of cyt C reduction by compound B was measured (FIG. 8). […] The spontaneous second order reaction rate constant of superoxide with compound B was calculated from the initial slope to be 8.1*10^2 M^-1 S^-1.

Data set [6] in a line: Lipid hydroperoxides in partially oxidized SUV liposomes. To be noted: 5 mM, after 24 h. The protocol: SUV liposomes were prepared from egg lecitin at 10% lipid concentration in a 50 ml HEPES buffer pH=6.9 according to already published procedures [Lichtenberg, D. and Barenholz. Y. (1988) Methods of Biochemical Analysis 33:337-462].
Lipid hydroperoxides were monitored by a modified micromolar sensitive spectroscopic method [Siddiqi, A. M. and Tappel, A. L. (1955) Chemist Analyst 44:52]. 50λ of lipids (liposomes or emulsion) were dissolved in 1 ml ethanol. 50λ of 50% potassium iodide solution were then added and the mixture was incubated for half an hour in the dark. The developed color was read in a spectrophotometer at 400 nm.
SUV Liposomes (12.5 mM) with certain degrees of oxidation were incubated with 5 mM AMTP molecules for period of 24 h. Peroxidation number (PN) was measured with potassium iodide in ethanol. AMTPs were able to decompose lipid hvdroperoxide and to reduce the peroxidation number (PN).

Data set [7] relates to BSA. The data set can be described thus: BSA's cystine oxidation by NaOCl (DTNB). To be noted: NaOCl 1 mM. As for the experimental part: BSA (0.5 mg/ml) in Imi HEPES buffer pH=7.2(50 mM) was incubated with sodium hypochlorite (1 mM) for 15 min. The protein was dialyzed for 2 h against 2×500 vol of HEPES buffer to remove free sodium hypochlorite. 301 DTNB 0.015 M in water was then added to the protein solution and color was measured at 420 nm. AMTPs were added to the protein sample to protect it against sodium hypochlorite [Hazell and Stocker, ibid.].
BSA's tryptophan oxidation and BSA's cystine oxidation were the models for protein damage by NaOCl (FIG. 11 and FIG. 12 respectively). BSA fluorescence intensity decreased following oxidative stress of NaOCI (1 mM). […] Out of the three AMTP compounds the most lipophilic (A) was best in preventing the damage and provided 94% protection on the protein.

The subject of data set [8] is Human skin fibroblasts. The data set can be described thus: Chromium release from fibroblasts, killing by streptolysin S and glucose oxidase. It is filed as cell-based. The protocol:
Human skin fibroblasts were kindly supplied by the Department for Human Genetics at Hadassa Hospital in Jerusalem. The cells were grown in D-MEM medium supplemented with glutamine, penicillin, and streptomycin and 10% fetal calf serum [Ginsburg, I. et al. (1992) Inflammation 16:519-538]. Radiolabeled cell monolayers were prepared by the addition of 10 μCi/ml of [^51 Cr]NaCrO4 (New England Nuclear) to […] of trypsinized cells grown in 75-ml tissue culture bottles. The cells were then dispensed into 24-well tissue culture plates (Nunc, Roskilde, Denmark) and grown to confluency in a CO2 incubator.
Hydrogen peroxide flux was generated by the addition of glucose oxidase (0.5 units/ml) to the tissue culture media. Streptolysin S (SLS) of Croup A Streptococci (17 hemolytic units/ml) was employed as a membrane damaging agent.
Culture monolayers were treated for 1 h with the agents listed above. The cultures were monitored periodically for changes in cell morphology. To assess cytotoxicity, the supernatant fluids were removed and centrifuged at 2000 rpm for 2 min. The solubilized radioactivity was then determined in a Contron gamma counter. The total radioactivity associated with untreated controls was solubilized by the addition of 1 ml of 1% Triton X-100. (AMTPs influence on SLS hemolytic activity and on glucose oxidase activity was also tested. No influences were observed).
Fibroblasts in culture were exposed to a synergistic killing mechanism (streptolysin S in combination with an oxidant glucose oxidase) in a D-MEM culture medium that contained 1 mg/ml of glucose (about 0.5-1 mM of H2 O2 was produced after 1 hour of incubation at 37° C.). This system caused about 60% chromium released within an hour. […] The positive controls were DMTU and catalase.

In general, LD50 refers to the dose expected to kill half of the subjects tested. Low values mean greater toxicity, high ones lower toxicity. In the case of `CCOP(=S)(NCCO)OCC` [Compound B, 2-hydroxyamido diethyithionophosphate], the 50% lethal dose (LD50) at 720 h in data set [1] is roughly 700 mg/kg. Besides, the mortality result in data set [2] (i.p., doses up to 500 mg/kg) is listed as “No mortality was observed”. The “changes in average weight” value in data set [2] (i.p., up to 500 mg/kg, monitoring of 30 days, vs saline control) is “nor were there any significant changes”. Also, the “mortality or weight differentiation” value in data set [2] (repetitive i.p. 75 mg/kg/day, two weeks) is “did not lead to any mortality or weight differentiation”. In addition, the “oxidation by sodium hypochlorite” value in data set [3] is given as “complete oxidation of the sulfur group”. Besides, the “decomposition by H2O2” value in data set [4] (5 mM compound, 100 mM H2O2) is recorded as “decomposed by H2 O2”. Also, the “reaction rate with hydrogen peroxide vs dielectric constant” value in data set [4] (1,4-dioxane/water mixtures, dielectric constants 72.63 and 9.58) was “much faster in high dielectric constants”. In data set [5], the “reduction of cyt C by compound itself” value is listed as “did not reduce cyt C”. Further, the “second order reaction rate constant with superoxide” value in data set [5] (calculated from the initial slope) is recorded as 8.1*10^2 M^-1 S^-1. For the same molecule, the “reduction of PN, comparative” value in data set [6] is listed as “more effective in reducing PN”. For the same molecule, in data set [7], the “protection of BSA's cystines” value was “strong protection”. The “prevention of cell damage, comparative” value in data set [8] is given as “much more efficient than compound C”. Further, the “toxic effects on the cell” value in data set [8] (concentrations of up to 20 mM, compound alone) is “did not show any toxic effects”. Moreover, the “protection against cell killing” value in data set [8] (concentrations up to 10 mM, 60 min) was 50-60%.
